The record followed here is ChEMBL document CHEMBL3507680, “University of Dundee, Gates Library screen for HepG2 cell viability”.

The data set is described as follows: Human HepG2 cell viability assay in 384 well format. Also noted: dose 125 nL, time 70.5 hour; cytotoxicity at 70.5 h: concentration not given beside the values. Particulars: HepG2 cells, read-out: Inhibition. Format: toxicity, cell-based.

As for `Cc1cc(=O)[nH]c(=O)n1Cc1ccccc1`, the cytotoxicity at 70.5 h was -7.18%. On to `Cc1ccnn1CCN1CCCC2(CCC(=O)N(C3CCCC3)C2)C1` (stereo not given), for which the cytotoxicity at 70.5 h was -21%. Next, `Cc1cccc(OC2CCN(c3nc(N)nc4[nH]cnc34)CC2)c1`: -1.39%; `CCc1nccn1CC(=O)N1C[C@H]2CC[C@@H]1CN(S(=O)(=O)N(C)C)C2`: 1.78%; `Cc1cccc(C(C(=O)NCCCc2ccncc2)N(C)C)c1` (stereo not given): -4.41%. Next, `CCC(C)N(Cc1cccnc1)C(=O)c1ccc(OC)cc1O` (stereo not given): -9.19%.

Take `Cc1cccnc1N1CCC(c2nccn2Cc2cscn2)CC1`: the cytotoxicity at 70.5 h is -0.624%. In the case of `Cc1nc2c(c(=O)n1C)CN(C(=O)C1CCCN(C(=O)N(C)C)C1)C2` (stereo not given), the cytotoxicity at 70.5 h is -0.169%. Next, `COCC(C)N(Cc1ccccc1OC)C(=O)c1cc(C)[nH]c(=O)c1` (stereo not given): -5.15%; `OC[C@H]1CN(Cc2c(Cl)cncc2Cl)C[C@H]1CN1CCOCC1`: -10.9%. Next, `CN(C)C(=O)N1CCCn2nc(CNC(=O)CCc3cccs3)cc2C1`: 0.772%; `CC(=O)C(C)CC(=O)N(Cc1cccc(C)c1)C(C)C` (stereo not given): -1.29%; `Cc1nc(C)n(CCNC2CCN(c3ncnc4c(C)csc34)CC2)n1`: -5.4%.

Regarding `CN1CCCC2(CCN(c3cc(C(F)(F)F)nc(N(C)C)n3)C2)C1=O` (stereo not given), the cytotoxicity at 70.5 h was determined as 10.3%. Next, `O=C1O[C@@H]2CN(Cc3cc4ccccc4o3)C[C@@H]2N1Cc1ccccn1`: -4.9%; `Cc1cc(NC(=O)c2ccc(N3CCOCC3)c(C)c2)[nH]n1`: 8.26%. Next, `Cc1c(C(C)NCc2cnn(C)c2)cnn1-c1ccccc1` (stereo not given): 2.44%; `COc1ccccc1Oc1ncccc1CNC(=O)C(O)C(F)(F)F` (stereo not given): -5.77%; `CCS(=O)(=O)N1CCC2(CCCN(Cc3ccc(F)c(F)c3)C2=O)C1` (stereo not given): 1.7%.

`Cc1nc(C(C)C)ncc1C(=O)N1CCC(c2ccccc2C(=O)O)C1` (stereo not given): the cytotoxicity at 70.5 h was -3.24%. `Nc1cc(CC2COc3ccccc3C2)ccn1` (stereo not given): the cytotoxicity at 70.5 h is 11.8%. For `CC(C)c1nccc(CN(C)Cc2cnn(-c3ccccc3)c2)n1`, the cytotoxicity at 70.5 h was 26.7%. The same measure for `CSc1nccc(N2CCC(=O)N(CC3CC3)C(C(C)C)C2)n1` (stereo not given): 54.1%; for `Nc1nccc(N2CCC(c3cc(Cc4ccccc4)n[nH]3)CC2)n1`: 31.5%.

Regarding `COc1ccc(C2CC(=O)NCc3nc(N(C)C)sc32)c(O)c1` (stereo not given), the cytotoxicity at 70.5 h is 2.48%. For `Cc1noc(C)c1CCCNC(=O)C1CCN(C(=O)C2CC2)CC1`, the cytotoxicity at 70.5 h came to 24.8%.

In the case of `CCNc1ccnc(NC2CCN(S(C)(=O)=O)CC2)n1`, the cytotoxicity at 70.5 h is -14.6%. On to `Cc1nccnc1N1C[C@H](NC(=O)CNS(C)(=O)=O)[C@@H](C2CC2)C1`, for which the cytotoxicity at 70.5 h was -3.36%. The same measure for `Cc1nnc(CN2CCOC(c3ccc(Cl)c(Cl)c3)C2)o1` (stereo not given): -3.49%.

In the case of `CCC(Nc1ncnc2sc(C(=O)O)c(C)c12)c1ccnn1C` (stereo not given), the cytotoxicity at 70.5 h is -12.8%. Next, `Cc1ccc(-c2noc(C(O)CC(C)C)n2)nn1` (stereo not given): -3.31%; `Cc1ncsc1C(=O)NCc1cc2n(n1)CCN(C(=O)N(C)C)C2`: -11.4%. With `CC(C)Cc1ncc2c(n1)CN(c1nc(N(C)C)nc3c1CCCC3)C2`, the cytotoxicity at 70.5 h is -0.189%. With `CCC(CO)N(Cc1ccco1)C(=O)c1ccc(F)cc1Cl` (stereo not given), the cytotoxicity at 70.5 h was -2.27%. Next, `CCc1ncc2c(n1)CN(c1cc(NC3CC3)nc(N)n1)C2`: -8.23%; `C[C@@H]1CN(S(=O)(=O)N2CCOCC2)C[C@@]1(O)C1CC1`: -2.98%. Next, `CCn1nc(C)c(NC(=O)CN2CCC(c3ccccc3Cl)C2)c1C` (stereo not given): 21.2%; `COc1ccccc1OC1CCN(C(=O)C2CCCN(C)C2)CC1` (stereo not given): -8.14%. Regarding `CCC/C=C/c1ccc(CN2CCCC2)cn1`, the cytotoxicity at 70.5 h is 48.4%. For `COCCCN1CC2(CCC1=O)CCN(Cc1cc(C(C)C)no1)CC2`, the cytotoxicity at 70.5 h amounted to 29.5%. Regarding `Cc1nccn1CCC1CCCCN1C(=O)c1ccc2nonc2c1` (stereo not given), the cytotoxicity at 70.5 h was -1.05%.

For `Cc1ccc(N2CC[C@@H](NC(=O)c3cnccn3)[C@H](O)C2)nn1`, the cytotoxicity at 70.5 h was -7.78%.

Take `Cc1nccn1Cc1nnc(C2CCCN(c3ncccc3F)C2)n1C` (stereo not given): the cytotoxicity at 70.5 h is -17.5%. `Cc1cccnc1CN1CCN(CC(=O)N(C)C)[C@@H]2CS(=O)(=O)C[C@@H]21`: the cytotoxicity at 70.5 h was -5.23%. On to `Cc1ccc(NC(=O)[C@H]2C[C@H](C(=O)O)CN(CC(C)C)C2)cn1`, for which the cytotoxicity at 70.5 h was -11.2%.

Regarding `CCCn1nccc1C(=O)N1CCCC(C(=O)CCc2ccccc2)C1` (stereo not given), the cytotoxicity at 70.5 h is -2.61%.

`CC(C)c1cc(C2CCCN2C(=O)c2cn3ccsc3n2)no1` (stereo not given): the cytotoxicity at 70.5 h is -5.17%. With `CN(C)Cc1ccc(C2CCCCN2C(=O)c2ncccc2O)cc1` (stereo not given), the cytotoxicity at 70.5 h is -3.45%.

On to `CC1=CC[C@@H]2CN(C(=O)c3ccc(-c4nc[nH]n4)cc3)C[C@@H]2C1`, for which the cytotoxicity at 70.5 h is 11%.

With `CN1CCC(Cc2nc(-c3cnccn3)n(C3CCS(=O)(=O)C3)n2)CC1` (stereo not given), the cytotoxicity at 70.5 h is 0.375%. Next, `Cc1cc(C)c(C(=O)N(CCO)Cc2ccccc2F)c(=O)[nH]1`: -8.86%; `Cc1cc(NCCN2CCNC2=O)nc2cc3c(cc12)CCC3`: -4.19%. In the case of `CCOc1ccccc1C(C(=O)O)N(C)Cc1cc(C)[nH]n1` (stereo not given), the cytotoxicity at 70.5 h is -5.35%. The same measure for `O=C(O)C(c1ccc2[nH]ccc2c1)N1CCN(c2cnccn2)CC1` (stereo not given): -3.87%. Turning to `Cc1cc(N2CCCN(CCc3ccccc3)CC2)ccn1`, the cytotoxicity at 70.5 h was -5.44%.

In the case of `O=C1COc2cc(OC[C@@H]3CCCN4CCCC[C@H]34)ccc21`, the cytotoxicity at 70.5 h came to 14.3%.

As to `N#Cc1cc2c(=O)n(CC(O)c3cccc(O)c3)ccc2[nH]c1=O` (stereo not given), the cytotoxicity at 70.5 h was -6.53%.

For `Cc1nc2c(c(N(C)CC3Cc4ccccc4CN3C)n1)CCNCC2` (stereo not given), the cytotoxicity at 70.5 h was found to be 11.4%. Take `Cn1cc(CN2CCCC(Cn3cc(CCCO)nn3)C2)cn1` (stereo not given): the cytotoxicity at 70.5 h was -7.9%. In the case of `CS(=O)(=O)NCCC1CCCN(Cc2ccccc2F)C1` (stereo not given), the cytotoxicity at 70.5 h is -7.9%. For the molecule `CCN(CC)CCNCc1cc(O)c2cc(C)ccc2n1`, the cytotoxicity at 70.5 h is -11.3%. Next, `N#Cc1ccc(N2CCCC(CO)(CCOc3ccccc3)C2)nc1` (stereo not given): -6.22%. The same measure for `CCn1cnc(NC(=O)NCC2CCS(=O)(=O)CC2)n1`: -19.4%; for `O=C(c1cccc(-c2ncc[nH]2)c1)N1CCC(N2CCCC(O)C2)CC1` (stereo not given): 4.83%; for `O=C(O)c1ccc(N2CCC(Oc3ccc(Cl)cc3)CC2)nc1`: -12.3%.

On to `CS(=O)(=O)Cc1nc(CCc2ccccc2)nn1-c1ccccn1`, for which the cytotoxicity at 70.5 h is -10.4%. The same measure for `O=C(O)c1ccnc(-c2ccnc(NCCc3nc4c(s3)CCC4)n2)c1`: -6.73%; for `CCOc1ccccc1-n1c(C2CC2)n[nH]c1=O`: -16.7%; for `Cc1cc2ncn(C[C@]3(O)CCCN4CCCC[C@@H]43)c2cc1C`: -15%. As to `Cc1ccc(OCC2CCCN(Cc3ccc(CO)o3)C2)cc1` (stereo not given), the cytotoxicity at 70.5 h is -3.39%.
